Data: US5470830A, “Motilin-like polypeptides that inhibit gastrointestinal motor activity” (Ohmeda Pharmaceutical Products Division Inc., priority 1993, dated 1995)
Counter-ions that a name gives are not always drawn. Like-named read-outs stand apart in the source and are kept apart here. Where a SMILES comes first, the peptide text is derived from it. Where no end group is shown, it is not given here. [ ]: non-standard residue; d: D form. 2Nal = N[C@@H](Cc1ccc2ccccc2c1)C(=O)O; NMeF = CN[C@@H](Cc1ccccc1)C(=O)O; 3Pal = N[C@@H](Cc1cccnc1)C(=O)O; 2Thi = N[C@@H](Cc1cccs1)C(=O)O; Cha = N[C@@H](CC1CCCCC1)C(=O)O

Legend:
[1] = target: T1, motilin receptor (rabbit antral smooth muscle membranes) (Oryctolagus cuniculus, UniProt G1T803); test: Motilin receptor binding affinity: displacement of [125I-Tyr7,Nle13]motilin(porcine)
T1 construct: from tissue; host or cells: rabbit antral smooth muscle membranes
Description: The motilin receptor binding affinity of the peptides of this invention was determined by using the general procedure of Bormans, Peelers and Vantrappen, Regul. Pept., 15, 143-153 (1986). The ability of the peptides to displace [^125 I-Tyr^7,Nle^13 ]motilin(porcine) bound to rabbit antral smooth muscle membranes, was determined by testing twice, each time in duplicate, at concentrations ranging from 10^-11 to 10^-4 M. The concentration displacing 50% of the label (IC50) was determined by fitting the data to the equation describing displacement, assuming a single class of motilin receptors to which labeled and non-labeled motilin bind with equal affinity and non-cooperatively. Fitting was performed using the iterative least-squares procedure of the SAS-software package (SAS Institute, Inc., Cary, N.C., U.S.A.). […] The concentration displacing 50% of the label is expressed using its negative logarithm (pIC50).

[2] = target: segments of rabbit duodenum (Oryctolagus cuniculus, UniProt G1T803); test: Rabbit duodenal smooth muscle strip tissue bath assay (contractile response); type: cell-based; conditions: contractility; negative logarithm of dose giving 50% of maximal response to motilin; compounds tested 10^-11 to 10^-4 M
Description: The experimental protocol consisted of an equilibration period of 1 hour: a challenge with 10^-4 M acetylcholine followed by a wash-out period; a cumulative dose-response curve of a compound with, at the end, the addition of 10^-7 M motilin; and finally 10^-4 M acetylcholine. If the final response to 10^-4 M acetylcholine differed by more than 5% from the initial response, the results were discarded.

[3] = negative logarithm of concentration displacing 50% of [125I-Tyr7,Nle13]motilin(porcine) from rabbit antral smooth muscle membranes, read-out: pIC50 (converted)

T1 sequence (G1T803 1-400): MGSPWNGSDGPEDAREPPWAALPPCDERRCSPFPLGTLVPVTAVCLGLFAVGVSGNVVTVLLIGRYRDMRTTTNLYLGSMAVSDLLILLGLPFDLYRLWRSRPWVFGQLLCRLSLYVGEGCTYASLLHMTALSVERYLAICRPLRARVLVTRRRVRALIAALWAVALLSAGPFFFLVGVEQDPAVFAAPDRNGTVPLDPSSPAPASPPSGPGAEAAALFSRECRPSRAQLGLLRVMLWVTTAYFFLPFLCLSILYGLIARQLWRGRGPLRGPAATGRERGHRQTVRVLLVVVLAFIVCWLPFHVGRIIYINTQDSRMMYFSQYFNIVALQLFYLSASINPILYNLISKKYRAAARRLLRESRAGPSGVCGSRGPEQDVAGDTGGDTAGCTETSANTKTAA
segments of rabbit duodenum, sequence (G1T803 1-400): as above

| Molecule | IC50 [1, 3] [nM] | pEC50 [2] | IC50 [1] [nM] |
| --- | --- | --- | --- |
| CC[C@H](C)[C@H](NC(=O)[C@H](Cc1ccccc1)NC(=O)[C@@H](NC(=O)[C@H](Cc1ccccc1)NC)C(C)C)C(=O)N[C@@H](Cc1ccccc1)C(=O)N[C@H](C(=O)N[C@@H](Cc1ccc(O)cc1)C(=O)NCC(=O)N[C@@H](CCC(=O)O)C(=O)N[C@@H](CC(C)C)C(=O)N[C@@H](CCC(N)=O)C(=O)N[C@@H](CCCNC(=N)N)C(=O)N[C@@H](CC(C)C)C(=O)N[C@@H](CCC(N)=O)C(=O)O)[C@@H](C)O [[N--MePhe^1, Phe^3, Leu^3]pMOT(1-14), [1-N-Methylphenylalanine, 3-phenylalanine, 13-leucine] motilin-(1-14)-peptide (Porcine), Bis-trifluoroacetate Salt] (H-[NMeF]VFIFTYGELQRLQ-OH) | 10.7 | < 4.5 |  |
| CC[C@H](C)[C@H](NC(=O)[C@H](Cc1ccc2ccccc2c1)NC(=O)[C@@H](NC(=O)[C@@H](N)Cc1ccccc1)C(C)C)C(=O)N[C@@H](Cc1ccccc1)C(=O)N[C@H](C(=O)N[C@@H](Cc1ccc(O)cc1)C(=O)NCC(=O)N[C@@H](CCC(=O)O)C(=O)N[C@@H](CC(C)C)C(=O)N[C@@H](CCC(N)=O)C(=O)N[C@@H](CCCNC(=N)N)C(=O)N[C@@H](CC(C)C)C(=O)N[C@@H](CCC(N)=O)C(=O)O)[C@@H](C)O [[2-Nal^3, Leu^13]pMOT(1-14), H-Phe-Val-2-Nal-Ile-Phe-Thr-Tyr-Gly-Glu-Leu-Gln-Arg-Leu-Gln-OH] (H-FV[2Nal]IFTYGELQRLQ-OH) | 27.5 | < 4.5 |  |
| H-FVFLFTYGELQRLQ-OH [[Phe^3, Leu^4, Leu^13]pMOT(1-14), H-Phe-Val-Phe-Leu-Phe-Thr-Tyr-Gly-Glu-Leu-Gln-Arg-Leu-Gln-OH] | 3.98 | < 4.5 |  |
| FVIIFTYGELQRLQEKERNKGQ [[Ile^3, Leu^13]pMOT] |  | < 4.5 | 15.1 |
| CC[C@H](C)[C@H](NC(=O)[C@H](Cc1ccccc1)NC(=O)[C@@H](NC(=O)[C@@H](N)Cc1ccccc1)C(C)C)C(=O)N[C@@H](CC1CCCCC1)C(=O)N[C@H](C(=O)N[C@@H](Cc1ccc(O)cc1)C(=O)NCC(=O)N[C@@H](CCC(=O)O)C(=O)N[C@@H](CC(C)C)C(=O)N[C@@H](CCC(N)=O)C(=O)N[C@@H](CCCNC(=N)N)C(=O)N[C@@H](CC(C)C)C(=O)N[C@@H](CCC(N)=O)C(=O)O)[C@@H](C)O [[Phe^3, Cha^5, Leu^13]pMOT(1-14), H-Phe-Val-Phe-Ile-Cha-Thr-Tyr-Gly-Glu-Leu-Gln-Arg-Leu-Gln-OH] (H-FVFI[Cha]TYGELQRLQ-OH) | 25.1 | < 4.5 |  |
| H-FLFIFTYGELQRLQ-OH [[Leu^2, Phe^3, Leu^13]pMOT(1-14), H-Phe-Leu-Phe-Ile-Phe-Thr-Tyr-Gly-Glu-Leu-Gln-Arg-Leu-Gln-OH] | 33.9 | < 4.5 |  |
| H-FVFIFTYGELARLQ-OH [[Phe^3, Ala^11, Leu^13]pMOT(1-14), H-Phe-Val-Phe-Ile-Phe-Thr-Tyr-Gly-Glu-Leu-Ala-Arg-Leu-Gln-OH] | 15.8 | < 4.5 |  |
| CC[C@H](C)[C@H](NC(=O)[C@H](Cc1ccccc1)NC(=O)[C@@H](NC(=O)[C@@H](N)Cc1ccccc1)C(C)C)C(=O)N[C@@H](Cc1ccccc1)C(=O)N[C@H](C(=O)N[C@@H](Cc1ccc(O)cc1)C(=O)NCC(=O)N[C@@H](CCC(=O)O)C(=O)N[C@@H](CC(C)C)C(=O)N[C@@H](CCC(N)=O)C(=O)N[C@H](CCCNC(=N)N)C(=O)N[C@@H](CC(C)C)C(=O)N[C@@H](CCC(N)=O)C(=O)O)[C@@H](C)O [[Phe^3, D-Arg^12, Leu^13]pMOT(1-14)] (H-FVFIFTYGELQ[dR]LQ-OH) | 81.3 | < 4.5 |  |
| H-FVFIATYGELQRLQ-OH [[Phe^3, Ala^5, Leu^13]pMOT(1-14), H-Phe-Val-Phe-Ile-Ala-Thr-Tyr-Gly-Glu-Leu-Gln-Arg-Leu-Gln-OH] | 15.8 | < 4.5 |  |
| CC[C@H](C)[C@H](NC(=O)[C@H](Cc1cccnc1)NC(=O)[C@@H](NC(=O)[C@@H](N)Cc1ccccc1)C(C)C)C(=O)N[C@@H](Cc1ccccc1)C(=O)N[C@H](C(=O)N[C@@H](Cc1ccc(O)cc1)C(=O)NCC(=O)N[C@@H](CCC(=O)O)C(=O)N[C@@H](CC(C)C)C(=O)N[C@@H](CCC(N)=O)C(=O)N[C@@H](CCCNC(=N)N)C(=O)N[C@@H](CC(C)C)C(=O)N[C@@H](CCC(N)=O)C(=O)O)[C@@H](C)O [[Pal^3, Leu^13]pMOT(1-14), H-Phe-Val-Pal-Ile-Phe-Thr-Tyr-Gly-Glu-Leu-Gln-Arg-Leu-Gln-OH] (H-FV[3Pal]IFTYGELQRLQ-OH) | 158 | < 4.5 |  |
| FVFIFTYGELQR-NH2 [[Phe^3 pMOT(1-12) amide, [3-Phenylalanine]motilin-(1-12)-peptide Amide (Porcine), Bis-trifluoroacetate Salt] | 27.5 | < 4.5 |  |
| H-FVFIFTFGELQRLQ-OH [[Phe^3, Phe^7, Leu^13]pMOT(1-14), H-Phe-Val-Phe-Ile-Phe-Thr-Phe-Gly-Glu-Leu-Gln-Arg-Leu-Gln-OH] | 30.9 | < 4.5 |  |
| CC[C@H](C)[C@H](NC(=O)[C@H](CC1CCCCC1)NC(=O)[C@@H](NC(=O)[C@@H](N)Cc1ccccc1)C(C)C)C(=O)N[C@@H](Cc1ccccc1)C(=O)N[C@H](C(=O)N[C@@H](Cc1ccc(O)cc1)C(=O)NCC(=O)N[C@@H](CCC(=O)O)C(=O)N[C@@H](CC(C)C)C(=O)N[C@@H](CCC(N)=O)C(=O)N[C@@H](CCCNC(=N)N)C(=O)N[C@@H](CC(C)C)C(=O)N[C@@H](CCC(N)=O)C(=O)O)[C@@H](C)O [[Cha^3, Leu^13]pMOT(1-14), H-Phe-Val-Cha-Ile-Phe-Thr-Tyr-Gly-Glu-Leu-Gln-Arg-Leu-Gln-OH] (H-FV[Cha]IFTYGELQRLQ-OH) | 20.9 | < 4.5 |  |
| CC[C@H](C)[C@H](NC(=O)[C@H](Cc1ccccc1)NC(=O)[C@@H](NC(=O)[C@H](N)Cc1ccccc1)C(C)C)C(=O)N[C@@H](Cc1ccccc1)C(=O)N[C@H](C(=O)N[C@@H](Cc1ccc(O)cc1)C(=O)NCC(=O)N[C@@H](CCC(=O)O)C(=O)N[C@@H](CC(C)C)C(=O)N[C@@H](CCC(N)=O)C(=O)N[C@@H](CCCNC(=N)N)C(=O)N[C@@H](CC(C)C)C(=O)N[C@@H](CCC(N)=O)C(=O)O)[C@@H](C)O [[D-Phe^1, Phe^3, Leu^13]pMOT(1-14), H-D-Phe-Val-Phe-Ile-Phe-Thr-Tyr-Gly-Glu-Leu-Gln-Arg-Leu-Gln-OH] (H-[dF]VFIFTYGELQRLQ-OH) | 229 | < 4.5 |  |
| CC[C@H](C)[C@H](NC(=O)[C@@H](Cc1ccccc1)NC(=O)[C@@H](NC(=O)[C@@H](N)Cc1ccccc1)C(C)C)C(=O)N[C@@H](Cc1ccccc1)C(=O)N[C@H](C(=O)N[C@@H](Cc1ccc(O)cc1)C(=O)NCC(=O)N[C@@H](CCC(=O)O)C(=O)N[C@@H](CC(C)C)C(=O)N[C@@H](CCC(N)=O)C(=O)N[C@@H](CCCNC(=N)N)C(=O)N[C@@H](CC(C)C)C(=O)N[C@@H](CCC(N)=O)C(=O)O)[C@@H](C)O [[D-Phe^3, Leu^13]pMOT(1-14), H-Phe-Val-D-Phe-Ile-Phe-Thr-Tyr-Gly-Glu-Leu-Gln-Arg-Leu-Gln-OH] (H-FV[dF]IFTYGELQRLQ-OH) | 8.13 | < 4.5 |  |
| CC[C@H](C)[C@H](NC(=O)[C@H](Cc1cccs1)NC(=O)[C@@H](NC(=O)[C@@H](N)Cc1ccccc1)C(C)C)C(=O)N[C@@H](Cc1ccccc1)C(=O)N[C@H](C(=O)N[C@@H](Cc1ccc(O)cc1)C(=O)NCC(=O)N[C@@H](CCC(=O)O)C(=O)N[C@@H](CC(C)C)C(=O)N[C@@H](CCC(N)=O)C(=O)N[C@@H](CCCNC(=N)N)C(=O)N[C@@H](CC(C)C)C(=O)N[C@@H](CCC(N)=O)C(=O)O)[C@@H](C)O [[Thi^3, Leu^13]pMOT(1-14), H-Phe-Val-Thi-Ile-Phe-Thr-Tyr-Gly-Glu-Leu-Gln-Arg-Leu-Gln-OH] (H-FV[2Thi]IFTYGELQRLQ-OH) | 25.7 | < 4.5 |  |
| CC[C@H](C)[C@H](NC(=O)[C@H](Cc1ccccc1)NC(=O)[C@@H](NC(=O)[C@@H](N)Cc1ccccc1)C(C)C)C(=O)N[C@@H](Cc1ccccc1)C(=O)N[C@H](C(=O)N[C@@H](Cc1ccc(O)cc1)C(=O)N[C@H](C)C(=O)N[C@@H](CCC(=O)O)C(=O)N[C@@H](CC(C)C)C(=O)N[C@@H](CCC(N)=O)C(=O)N[C@@H](CCCNC(=N)N)C(=O)N[C@@H](CC(C)C)C(=O)N[C@@H](CCC(N)=O)C(=O)O)[C@@H](C)O [[Phe^3, D-Ala^8, Leu^13]pMOT(1-14), H-Phe-Val-Phe-Ile-Phe-Thr-Tyr-D-Ala-Glu-Leu-Gln-Arg-Leu-Gln-OH] (H-FVFIFTY[dA]ELQRLQ-OH) | 49 | < 4.5 |  |
| H-FVLIFTYGELQRLQ-OH [[Leu^3, Leu^13]pMOT(1-14), H-Phe-Val-Leu-Ile-Phe-Thr-Tyr-Gly-Glu-Leu-Gln-Arg-Leu-Gln-OH] | 178 | < 4.5 |  |
